Legend:
WT macrophages (WTØ) = assay: Phagocytosis of irradiated cells by WT macrophages (WTØ), Cxcl10 qPCR, with CCL5, CCL5 antibody or CCR inhibitors; type: cell-based, mouse; details: exogenously added recombinant CCL5 100 ng/mL 2 h, irradiated B16 cells 50 Gy
Method: (B) B16-WT or B16-SKO cells were irradiated using X-rays at 50 Gy for 3 days. 50 μL of the conditioned media from the cells was added to WTØ followed by adding the irradiated B16-WT and B16-SKO cells with the treated APC's for phagocytosis analysis. qPCR analysis was performed for Cxcl10 expression. (C) qPCR analysis of Cxcl10 in WTØ following the phagocytosis of irradiated MEF-WT cells in the presence of CCL5 antibody or IgG control (1 μg) at 100 ng/mL for 2 h prior to the phagocytosis. (D) MEF-WT cells were treated with a cocktail of 100 nM CCR inhibitors (Bx471, SB297006, AZD2098 and Maraviroc). The MEF-WT cells treated with the inhibitors (CCRi) were fed to WTØ for 6 h and Cxcl10 expression examined. (E) MEF WT, SKO or CCL5 KO were transfected with 3 μg/mL ISD for 6 h followed by measuring Ifnβ1, Cxcl10 or Ccl5 expression by qPCR analysis. (F) MEF WT, SKO or CCL5 KO were transfected with 3 μg/mL ISD for 6 h and then examined for STING activity by immunoblotting analysis. […] Immunofluorescence to detect STING translocation was monitored by confocal microscope, according to an embodiment of the present invention; […]
Macrophages were washed with 0.02% EDTA/PBS twice followed by incubation with 0.02% EDTA/PBS at 37C incubator for 10 mins. […] Percentage of phagocytosed cells were assessed by flow cytometry using a LSRII instrument (Becton Dickinson, USA).

ISD (dsDNA) = assay: Binding of CCL5 to DNA (Picogreen, EMSA); details: ISD 10 μg/mL
Description: SIEVES were isolated from irradiated (X-ray at 50 Gy for 3 days) WT, SKO, or CCL5 MEFs as well as B16-WT, B16-SKO or B16-CCL5KO cells by centrifugation. (A) Immunoblot analysis of centrifuged fractions using antibodies to STING, CD81, LC3, and Lamin A/C. (B) Size distribution evaluation of endosomal vesicles isolated from B16-WT. B16-SKO, and B16-CCL5 KO cells following irradiation with X-rays at 50 Gy. (C) Evaluation of number of endosomal vesicles in (B). (D) Immunoblotting analysis of endosomal/exosomal markers in endosomal vesicles in (B). (E) cGAMP ELISA analysis of WT DC. SKO DC, and CKO BMDC's treated with 30 μg of SIEVE's isolated from MEF WT, MEF SKO, MEF CKO or MEF CCL5 KO. (F) qPCR analysis of Cxcl10 in WT DC treated with SIEVE's from (E). […] (G) Tumor volumes were measured every other day for 2 weeks. […]
(B) B16-WT. […] DNA was purified with phenol-chloroform and CCL5 bound ISD was analyzed by qPCR analysis. (C) DNA in SIEVE's isolated from MEF-WT, SKO and CCL5 KO with or without X-ray at 50 Gy were measured by Nanodrop, Picogreen staining and visualized by agarose gel electrophoresis and dot blot analysis, according to an embodiment of the present invention; and
ISD90 was premixed with CCL5 and negative control molecules at different concentration in 100 μL and analyzed by a fluorimeter after staining with Picogreen. […]

DNase II = assay: Nuclease protection assay of Ccl5-DNA complex; type: biochemical; details: 1 unit DNase II, 37° C., 20 mins
CD11+ BMDC's = assay: Phagocytosis of irradiated MEFs treated with autophagy inhibitors by BMDC's (qPCR IFNβ1, Cxcl10); type: cell-based, mouse; details: BafA1 50 nM; 3-MA 2.5 mM

Molecule | rescue of immunogenicity of Ccl5 KO or STING KO cells (WT macrophages (WTØ)) | association of Ccl5 with DNA (ISD (dsDNA)) | protection against DNA degradation by DNaseII (DNase II) | immunogenicity of irradiated MEF cells (ability to activate APC's) (CD11+ BMDC's)
Ccl5: recombinant CCL5 protein, exogenously added chemokine | did not appear to significantly rescue the immunogenicity | associated with | conferred protection against DNA degradation | 
Cn1cnc(N)c2ncnc1-2 [3-MA, 3-Methyladenine] |  |  |  | suppressed the immunogenicity
CO/C1=C\C(C)=C\[C@@H](C)[C@@H](O)[C@@H](C)C/C(C)=C/C=C/[C@H](OC)[C@@H]([C@@H](C)[C@@H](O)[C@H](C)[C@@]2(O)C[C@@H](O)[C@H](C)[C@@H](C(C)C)O2)OC1=O [BafA1, bafilomycin A1] |  |  |  | suppressed the immunogenicity

— patent publication US20250019772A1, “Method and System of Augmenting Cancer Therapy” (UNIVERSITY OF MIAMI, priority 2023, published 2025)
